Where two headings read alike, the source gives them in different places.
Tests used:
barnyardgrass [1] = test: Test C pre-/postemergence herbicide test; type: in vivo, Echinochloa crus-galli
Method in brief: (§1)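 Pre- and postemergence greenhouse screen. Preemergence treatment went onto freshly planted seeds in loam–sand soil; postemergence treatment went onto plants 2 to 18 cm tall at the 1- to 4-leaf stage in sphagnum peat/vermiculite medium. Scoring at 13 to 15 days used a 0–100 control scale.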

morningglory = test: Test A pre-/postemergence herbicide test; type: in vivo, Ipomoea spp.; details: for Plant response rating, Morningglory: 1000 g ai/ha; for pest or weed control at 500 g/ha: 500 g ai/ha
Method in brief: (§2)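 Visual injury ratings, 0 = no effect, 100 = complete control, taken ~10 days after treatment against untreated greenhouse controls. Preemergence: directed soil spray onto seeded loam/sand pots. Postemergence: spray onto plants at one- to two-leaf stage, 2–10 cm tall.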

pigweed [2] = test: Test A pre-/postemergence herbicide test; type: in vivo, Amaranthus retroflexus
Method in brief: as §2

pigweed [3] = test: Test C pre-/postemergence herbicide test; type: in vivo, Amaranthus retroflexus
Method in brief: as §1

ducksalad = test: Test B flooded paddy test; type: in vivo, Heteranthera limosa; details: Flood, scale of 0 to 100 where 0 is no effect and 100 is complete control
Method in brief: (§3)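 2-leaf plants; flood 3 cm over soil; compound into paddy water; depth held. Greenhouse 13–15 d. Visual rating vs controls, 0 (no effect) to 100 (complete control); dash = not tested.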

barnyardgrass [4] = test: Test B flooded paddy test; type: in vivo, Echinochloa crus-galli; details: Flood, scale of 0 to 100 where 0 is no effect and 100 is complete control
Method in brief: as §3

sedge, umbrella = test: Test C flooded paddy test; type: in vivo, Cyperus difformis; details: Flood
Method in brief: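 Visual ratings from 0, no effect, to 100, complete control, were made against untreated controls after 13–15 greenhouse days. Compounds had gone straight into paddy water 3 cm above the soil, kept at that depth, on 2-leaf-stage plants.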

ragweed = test: Test A pre-/postemergence herbicide test; type: in vivo, Ambrosia elatior
Method in brief: as §2

ryegrass, Italian = test: Test A pre-/postemergence herbicide test; type: in vivo, Lolium multiflorum
Method in brief: as §2

[5] = Postemergence, 31 g ai/ha, scale 0 (no effect) to 100 (complete control)
[6] = Postemergence, 62 g ai/ha, scale 0 to 100 (0 no effect, 100 complete control)
[7] = Postemergence, 125 g ai/ha, scale 0 to 100 (0 no effect, 100 complete control)
[8] = Postemergence, 250 g ai/ha, scale 0 to 100 (0 no effect, 100 complete control)
[9] = 125 g ai/ha, visual rating, 0 to 100 scale, 0 no effect, 100 complete control, approximately 10 days, preemergence
[10] = Postemergence, 125 g ai/ha, 0 to 100 scale, 0 is no effect, 100 is complete control
[11] = preemergence, 500 g ai/ha, 0 to 100 scale, 0 is no effect and 100 is complete control
[12] = Preemergence, 31 g ai/ha, scale 0 to 100, 0 is no effect and 100 is complete control
[13] = Preemergence, 62 g ai/ha, scale 0 to 100
[14] = Preemergence, 125 g ai/ha, scale 0 to 100 (0 no effect, 100 complete control)
[15] = Preemergence, 125 g ai/ha, visual rating on 0 to 100 scale (0 no effect, 100 complete control)
[16] = Postemergence, 31 g ai/ha, scale 0 to 100 (0 no effect, 100 complete control)
[17] = Postemergence, 62 g ai/ha, scale 0 (no effect) to 100 (complete control)
[18] = Preemergence, 62 g ai/ha, scale 0 to 100 (0 no effect, 100 complete control)
[19] = Postemergence, 125 g ai/ha, visual rating on 0 to 100 scale (0 no effect, 100 complete control), approx. 10 days
[20] = Postemergence, 500 g ai/ha, 0 to 100 scale (0 no effect, 100 complete control)
[21] = Preemergence, 125 g ai/ha, 0 to 100 scale where 0 is no effect and 100 is complete control
[22] = Preemergence, 500 g ai/ha, visual rating on 0 to 100 scale (0 no effect, 100 complete control)
[23] = Preemergence, 125 g ai/ha, scale 0 to 100

SMILES	Plant response rating, Barnyardgrass (barnyardgrass [1]; [7])	Plant response rating, Barnyardgrass (barnyardgrass [1]; [8])	Plant response rating, Pigweed (pigweed [3]; [7])	Plant response rating, Pigweed (pigweed [3]; [8])	Barnyardgrass plant response rating (barnyardgrass [1]; [12])	Plant response rating, Barnyardgrass (barnyardgrass [1]; [14])	Plant response rating (scale of 0 to 100; 0 is no effect, 100 is complete control), Barnyardgrass (barnyardgrass [1]; Preemergence, 250 g ai/ha)	Pigweed plant response rating (pigweed [3]; [12])	Barnyardgrass plant response rating (barnyardgrass [1]; [18])	Plant response rating, Pigweed (pigweed [2]; [19])	Plant response rating, Pigweed (pigweed [2]; [21])	Pigweed plant response rating (pigweed [2]; [22])	Plant response rating, Ragweed (ragweed; [19])	Plant response rating, Ragweed (ragweed; [21])	Ragweed plant response rating (ragweed; [22])	Pigweed plant response rating (pigweed [3]; [18])	Plant response rating, Pigweed (pigweed [3]; [23])	Plant response rating, Ryegrass, Italian (ryegrass, Italian; [19])	Plant response rating, Ryegrass, Italian (ryegrass, Italian; [21])	Ryegrass, Italian plant response rating (ryegrass, Italian; [22])	also measured
Cc1c(F)cccc1NC(=O)C1C(=O)NCC1c1ccc(F)c(F)c1 (racemic) [Compound 106]	0	30	5	30	–	–	–	–	–	–	–	–	–	–	–	–	–	–	–	–	Plant response rating, Barnyardgrass (barnyardgrass [1]; [5]): 0; Plant response rating, Barnyardgrass (barnyardgrass [1]; [6]): 0; Plant response rating, Morningglory (morningglory; Postemergence, 0 to 100 scale (0 no effect, 100 complete control)): 20; Plant response rating, Morningglory (morningglory; preemergence, 0 to 100 scale): 0; Plant response rating, Pigweed (pigweed [2]; Postemergence, 1000 g ai/ha, 0 to 100 scale (0 no effect, 100 complete control)): 0; Plant response rating, Pigweed (pigweed [2]; preemergence, 1000 g ai/ha, 0 to 100 scale): 0; Plant response rating, Pigweed (pigweed [3]; [5]): 0; Plant response rating, Pigweed (pigweed [3]; [6]): 0; Plant response rating, Ducksalad (ducksalad; 1000 g ai/ha): 90; Plant response rating, Barnyardgrass (barnyardgrass [4]; 1000 g ai/ha): 60
O=C1NCC(c2cccc(C(F)F)c2)C1C(=O)Nc1ccccc1F (racemic) [Compound 210]	–	–	–	–	–	–	–	–	–	–	–	–	–	–	–	–	–	–	–	–	Plant response rating, Sedge, Umbrella (sedge, umbrella; 125 g ai/ha, scale of 0 to 100 where 0 is no effect and 100 is complete control, 13 to 15 days): 0; Plant response rating, Sedge, Umbrella (sedge, umbrella; 250 g ai/ha, scale of 0 to 100 where 0 is no effect and 100 is complete control, 13 to 15 days): 0; Plant response rating, Sedge, Umbrella (sedge, umbrella; 500 g ai/ha, scale 0 to 100): 0; Plant response rating, Sedge, Umbrella (sedge, umbrella; 1000 g ai/ha, scale 0 to 100): 0; Plant response rating, Pigweed (pigweed [2]; [9]): 0; Plant response rating, Pigweed (pigweed [2]; [10]): 0; Pigweed plant response rating (0 to 100 scale, 0 is no effect, 100 is complete control) (pigweed [2]; Postemergence, 500 g ai/ha): 20; Plant response rating, Pigweed (pigweed [2]; [11]): 50; Plant response rating, Ragweed (ragweed; [9]): 0; Plant response rating, Ragweed (ragweed; [10]): 0; Ragweed plant response rating (0 to 100 scale, 0 is no effect, 100 is complete control) (ragweed; Postemergence, 500 g ai/ha): 0; Plant response rating, Ragweed (ragweed; [11]): 30; Plant response rating, Ryegrass, Italian (ryegrass, Italian; [9]): 0; Plant response rating, Ryegrass, Italian (ryegrass, Italian; [10]): 0; Ryegrass, Italian plant response rating (0 to 100 scale, 0 is no effect, 100 is complete control) (ryegrass, Italian; Postemergence, 500 g ai/ha): 50; Plant response rating, Ryegrass, Italian (ryegrass, Italian; [11]): 50
O=C1NCC(c2ccc(C(F)(F)F)cc2)C1C(=O)Nc1ccccc1F (centres unmarked) [Compound 79, N-(2-fluorophenyl)-2-oxo-4-[4-(trifluoromethyl)phenyl]-3-pyrrolidinecarboxamide]	35	60	35	35	40	95	98	10	–	–	–	–	–	–	–	–	–	–	–	–	Plant response rating, Barnyardgrass (barnyardgrass [1]; [5]): 0; Plant response rating, Barnyardgrass (barnyardgrass [1]; [6]): 0; Plant response rating, Barnyardgrass (barnyardgrass [1]; [13]): 95; pest or weed control at 125 g/ha (morningglory; Ipomoea, post-emergence, 240 h, Postemergence, 125 g ai/ha, 0 to 100 scale, 0 no effect, 100 complete control, read-out: Plant response rating, Morningglory): 0%; pest or weed control at 500 g/ha (morningglory; Ipomoea, post-emergence, 240 h, Postemergence, 0 to 100 scale (0 no effect, 100 complete control), read-out: Plant response rating, Morningglory): 10%; pest or weed control at 500 g/ha (morningglory; Ipomoea, pre-emergence, 240 h, preemergence, 0 to 100 scale, read-out: Plant response rating, Morningglory): 0%; Morningglory plant response rating (morningglory; [15]): 0; pest or weed control at 125 g/ha (pigweed [2]; Amaranthus retroflexus, post-emergence, 240 h, Postemergence, 125 g ai/ha, 0 to 100 scale, 0 no effect, 100 complete control, read-out: Plant response rating, Pigweed): 70%; pest or weed control at 500 g/ha (pigweed [2]; Amaranthus retroflexus, post-emergence, 240 h, Postemergence, 500 g ai/ha, 0 to 100 scale (0 no effect, 100 complete control), read-out: Plant response rating, Pigweed): 70%; pest or weed control at 500 g/ha (pigweed [2]; Amaranthus retroflexus, pre-emergence, 240 h, preemergence, 500 g ai/ha, 0 to 100 scale, read-out: Plant response rating, Pigweed): 80%; Pigweed plant response rating (pigweed [2]; [15]): 80; Plant response rating, Pigweed (pigweed [3]; [5]): 35; Plant response rating, Pigweed (pigweed [3]; [6]): 35; Plant response rating, Pigweed (pigweed [3]; [13]): 40; Plant response rating, Pigweed (pigweed [3]; [14]): 50; Plant response rating (scale of 0 to 100), Pigweed (pigweed [3]; Preemergence, 250 g ai/ha): 65; Plant response rating, Ducksalad (ducksalad; 250 g ai/ha): 90; Plant response rating, Barnyardgrass (barnyardgrass [4]; 250 g ai/ha): 0
O=C1NCC(c2cccc(Br)c2)C1C(=O)Nc1ccc(F)c(F)c1F (centres unmarked) [Compound 310]	50	75	60	70	50	90	95	0	90	0	40	40	20	0	0	5	20	30	30	40	Plant response rating, Barnyardgrass (barnyardgrass [1]; [16]): 5; Plant response rating, Barnyardgrass (barnyardgrass [1]; [17]): 25; Plant response rating, Pigweed (pigweed [2]; [20]): 0; Plant response rating, Ragweed (ragweed; [20]): 30; Plant response rating, Pigweed (pigweed [3]; [16]): 35; Plant response rating, Pigweed (pigweed [3]; [17]): 40; Plant response rating (scale of 0 to 100), Pigweed (pigweed [3]; Preemergence, 250 g ai/ha): 20; Plant response rating, Ducksalad (ducksalad; 500 g ai/ha): 100; Plant response rating, Barnyardgrass (barnyardgrass [4]; 500 g ai/ha): 60; Plant response rating, Ryegrass, Italian (ryegrass, Italian; [20]): 30
CC(C)c1cccc(C2CNC(=O)C2C(=O)Nc2cccc(F)c2F)c1 (centres unmarked) [Compound 319]	–	–	–	–	90	95	98	30	95	0	0	20	20	30	40	25	40	30	30	60	Plant response rating, Pigweed (pigweed [2]; [20]): 20; Plant response rating, Ragweed (ragweed; [20]): 40; Plant response rating, Ducksalad (ducksalad; 500 g ai/ha): 100; Plant response rating, Barnyardgrass (barnyardgrass [4]; 500 g ai/ha): 70; Plant response rating, Ryegrass, Italian (ryegrass, Italian; [20]): 50
O=C1NCC(c2cccc(C(F)(F)F)c2)C1C(=O)Nc1ccc(F)c(F)c1F (centres unmarked) [Compound 345]	–	–	–	–	80	95	95	30	95	20	0	70	0	0	0	30	65	50	0	40	Plant response rating, Ducksalad (ducksalad; 1000 g ai/ha): 30; Plant response rating, Barnyardgrass (barnyardgrass [4]; 1000 g ai/ha): 0

Source: US10294202B2, “Pyrrolidinones as herbicides” (FMC Corporation, priority 2013, dated 2019)
